This note sets out measurements from ChEMBL document CHEMBL5303573, “Mapping human microbiome drug metabolism by gut bacteria and their genes” (Nature, 2019).

Data set [1] in a line: The drug is tested on Eubacterium ventriosum strain: ATCC27560 for biotransformation. The drug concentrations were measured before and after a 12-h incubation by liquid-chromatography-coupled mass spectrometry (LC–MS). Conditions: 2 µM. The format is ADME. Further details: dose 2 uM, timepoint 0 vs 12 hours.
The conditions of data set [2]: parabacteroides johnsonii, 12 h, 2 µM.
Description: The drug is tested on Parabacteroides johnsonii strain: DSM18315 for biotransformation. The drug concentrations were measured before and after a 12-h incubation by liquid-chromatography-coupled mass spectrometry (LC–MS)
Data set [3] is described as follows: The drug is tested on Ruminococcus torques strain: ATCC27756 for biotransformation. The drug concentrations were measured before and after a 12-h incubation by liquid-chromatography-coupled mass spectrometry (LC–MS). The format is ADME. Further details: dose 2 uM, timepoint 0 vs 12 hours. The note with it: 2 µM.
Data set [4] in a line: The drug is tested on Bifidobacterium longum subsp. Infantis strain: CCUG52486 for biotransformation. The drug concentrations were measured before and after a 12-h incubation by liquid-chromatography-coupled mass spectrometry (LC–MS). Conditions: 2 µM.
The nature of data set [5]: The drug is tested on Bacteroides xylanisolvens strain: DSM18836 for biotransformation. The drug concentrations were measured before and after a 12-h incubation by liquid-chromatography-coupled mass spectrometry (LC–MS). Conditions: 2 µM.
Data set [6] is described as follows: The drug is tested on Eubacterium hallii strain: DSM3353 for biotransformation. The drug concentrations were measured before and after a 12-h incubation by liquid-chromatography-coupled mass spectrometry (LC–MS). Conditions: anaerobutyricum hallii, 2 µM.
The nature of data set [7]: The drug is tested on Escherichia coli strain: BW25113 for biotransformation. The drug concentrations were measured before and after a 12-h incubation by liquid-chromatography-coupled mass spectrometry (LC–MS). The note with it: 2 µM.
For data set [8] the following is noted: enterocloster bolteae, 12 h, 2 µM.
Description: The drug is tested on Clostridium bolteae strain: ATCCBAA-613 for biotransformation. The drug concentrations were measured before and after a 12-h incubation by liquid-chromatography-coupled mass spectrometry (LC–MS)
Data set [9] is described as follows: The drug is tested on Bacteroides sp. WH2 strain: WH2 for biotransformation. The drug concentrations were measured before and after a 12-h incubation by liquid-chromatography-coupled mass spectrometry (LC–MS). Conditions: bacteroides sp. wh2, 12 h, 2 µM.
A short description of data set [10]: The drug is tested on Clostridium ramosum strain: DSM1402 for biotransformation. The drug concentrations were measured before and after a 12-h incubation by liquid-chromatography-coupled mass spectrometry (LC–MS). The note with it: thomasclavelia ramosa, 2 µM.
For data set [11] the following is noted: bifidobacterium adolescentis, 12 h, 2 µM.
Description: The drug is tested on Bifidobacterium adolescentis strain: ATCC 15703 for biotransformation. The drug concentrations were measured before and after a 12-h incubation by liquid-chromatography-coupled mass spectrometry (LC–MS)
Data set [12] is described as follows: The drug is tested on Collinsella aerofaciens strain: ATCC25986 for biotransformation. The drug concentrations were measured before and after a 12-h incubation by liquid-chromatography-coupled mass spectrometry (LC–MS). The note with it: 2 µM.
Data set [13] in a line: The drug is tested on Bifidobacterium breve strain: DSM20213 for biotransformation. The drug concentrations were measured before and after a 12-h incubation by liquid-chromatography-coupled mass spectrometry (LC–MS). The note with it: 2 µM.
The nature of data set [14]: The drug is tested on Eubacterium rectale strain: ATCC33656 for biotransformation. The drug concentrations were measured before and after a 12-h incubation by liquid-chromatography-coupled mass spectrometry (LC–MS). The note with it: agathobacter rectalis, 2 µM.
Data set [15] in a line: The drug is tested on Bacteroides coprophilus strain: DSM18228 for biotransformation. The drug concentrations were measured before and after a 12-h incubation by liquid-chromatography-coupled mass spectrometry (LC–MS). Conditions: 2 µM.
Data set [16] in a line: The drug is tested on Enterococcus faecalis strain: V583 for biotransformation. The drug concentrations were measured before and after a 12-h incubation by liquid-chromatography-coupled mass spectrometry (LC–MS). The note with it: 2 µM.
A short description of data set [17]: The drug is tested on Bacteroides fragilis strain: HMW615 for biotransformation. The drug concentrations were measured before and after a 12-h incubation by liquid-chromatography-coupled mass spectrometry (LC–MS). Conditions: 2 µM.
Data set [18] can be described thus: The drug is tested on Providencia stuartii strain: ATCC25827 for biotransformation. The drug concentrations were measured before and after a 12-h incubation by liquid-chromatography-coupled mass spectrometry (LC–MS). Conditions: 2 µM.
A short description of data set [19]: The drug is tested on Bacteroides ovatus strain: ATCC8483 for biotransformation. The drug concentrations were measured before and after a 12-h incubation by liquid-chromatography-coupled mass spectrometry (LC–MS). The note with it: 2 µM.

`CCN(CC)CCNC(=O)c1ccc(NC(C)=O)cc1` [ACECAINIDE]: the “Bacterial Biotransformation” value in [1], in [2], in [3], in [4], in data set [5] and in data set [6] was “Compound NOT metabolized” throughout. Moreover, the “Bacterial Biotransformation” value in data set [7], in data set [8], in data set [9], in data set [10], in data set [11] and in data set [12] was “Compound NOT metabolized” each time. Further, the “Bacterial Biotransformation” value in [13], in [14], in data set [15], in data set [16] and in [17] was “Compound NOT metabolized” each time.

Regarding `CCC1(c2ccc(N)cc2)CCC(=O)NC1=O` (stereo unspecified) [AMINOGLUTETHIMIDE], the “Bacterial Biotransformation” value in data set [1], in data set [2], in data set [4], in data set [5], in data set [6] and in data set [7] was “Compound NOT metabolized” throughout. For the same compound, the “Bacterial Biotransformation” value in [8], in data set [18], in data set [9], in [10], in data set [11] and in data set [12] was “Compound NOT metabolized” throughout. For the same compound, the “Bacterial Biotransformation” value in data set [13], in data set [19], in [14], in [15], in [16] and in data set [17] was “Compound NOT metabolized” each time.

Turning to `CCOC(=O)[C@H](CCc1ccccc1)N[C@H]1CCc2ccccc2N(CC(=O)O)C1=O` [BENAZEPRIL], the “Bacterial Biotransformation” value is given as “Compound NOT metabolized” in data set [1]; “Compound metabolized” in [2]; “Compound NOT metabolized” in [3]; “Compound metabolized” in [5]; “Compound NOT metabolized” in data set [6]; “Compound NOT metabolized” in [7]. In addition, the “Bacterial Biotransformation” value was “Compound NOT metabolized” in data set [8]; “Compound NOT metabolized” in [18]; “Compound metabolized” in [9]; “Compound NOT metabolized” in data set [10]; “Compound NOT metabolized” in data set [11]; “Compound metabolized” in data set [12]. Further, the “Bacterial Biotransformation” value in data set [13] is listed as “Compound NOT metabolized”; in data set [19] it was “Compound metabolized”; in [14], “Compound NOT metabolized”; in [15], “Compound metabolized”; in [16], “Compound metabolized”; in [17], “Compound metabolized”.

Consider `CCc1oc2ccccc2c1C(=O)c1cc(Br)c(O)c(Br)c1` [BENZBROMARONE], for which the “Bacterial Biotransformation” value in data set [1], in data set [2], in data set [4], in data set [5], in data set [6] and in data set [7] was “Compound NOT metabolized” each time. The “Bacterial Biotransformation” value in data set [18] is recorded as “Compound NOT metabolized”; in data set [9], “Compound NOT metabolized”; in data set [10], “Compound NOT metabolized”; in data set [11], “Compound NOT metabolized”; in data set [12], “Compound NOT metabolized”; in data set [13] it was “Compound metabolized”. The “Bacterial Biotransformation” value in data set [19], in data set [14], in data set [15], in [16] and in [17] was “Compound NOT metabolized” each time.

On to `CC(C)NCC(O)COc1ccc(CCOCC2CC2)cc1` (stereo unspecified) [BETAXOLOL], for which the “Bacterial Biotransformation” value in data set [1], in [3], in [4], in data set [6], in data set [7] and in data set [8] was “Compound NOT metabolized” each time. For the same compound, the “Bacterial Biotransformation” value in [18], in data set [9], in data set [10], in [11], in data set [12] and in [13] was “Compound NOT metabolized” throughout. In addition, the “Bacterial Biotransformation” value in [19], in [14], in data set [15], in [16] and in data set [17] was “Compound NOT metabolized” throughout.

With `CCCC(C)(COC(N)=O)COC(=O)NC(C)C` (stereo unspecified) [CARISOPRODOL], the “Bacterial Biotransformation” value in data set [1] was “Compound metabolized”; in data set [3] it was “Compound NOT metabolized”; in [4], “Compound NOT metabolized”; in data set [5] it was “Compound metabolized”; in [6], “Compound NOT metabolized”; in [7], “Compound NOT metabolized”. Also, the “Bacterial Biotransformation” value in [8] is given as “Compound NOT metabolized”; in data set [18], “Compound NOT metabolized”; in data set [9] it was “Compound NOT metabolized”; in data set [10], “Compound NOT metabolized”; in [12], “Compound metabolized”; in data set [13] it was “Compound NOT metabolized”. Besides, the “Bacterial Biotransformation” value in data set [14] is recorded as “Compound NOT metabolized”; in [15], “Compound metabolized”; in data set [16], “Compound NOT metabolized”; in data set [17] it was “Compound metabolized”.

Turning to `Br.CN(C)CCCC1(c2ccc(F)cc2)OCc2cc(C#N)ccc21` (stereo unspecified) [CITALOPRAM HYDROBROMIDE], the “Bacterial Biotransformation” value in [1], in data set [2], in data set [3], in data set [4], in data set [6] and in [7] was “Compound NOT metabolized” each time. The “Bacterial Biotransformation” value in [8], in data set [18], in data set [9], in data set [10], in data set [11] and in data set [12] was “Compound NOT metabolized” throughout. The “Bacterial Biotransformation” value in data set [13], in data set [19], in data set [14], in [15], in data set [16] and in data set [17] was “Compound NOT metabolized” throughout.
